Data reported in patent US5624906A, “Oral hygiene compositions comprising heteroatom containing alkyl aldonamide compounds” (Lever Brothers Company, Division of Conopco, Inc., priority 1994, dated 1997).
Read-outs that look alike come from different tables or passages of the source.

Tests used:
[1] = Effectiveness of adsorption (surface excess concentration, Gibbs equation); assay type: physicochemical; conditions: for Γmax (surface excess concentration at surface saturation): 60 °C, estimated by extrapolating a linear line
Source text: The surface excess concentration at surface saturation (Γmax) is defined as a measure of the effectiveness of surfactant adsorption at the water/air interface and represents the maximum value to which adsorption can be obtained. Effectiveness of adsorption is related to the interfacial area occupied by the surfactant molecule. The smaller the effective cross-sectional area of a surfactant at the interface, the greater its effectiveness of adsorption. The effectiveness of adsorption is an important factor in determining surfactant properties such as detergency, foaming, wetting or emulsification. While not wishing to be bound by theory, it is believed that surfactants that absorb effectively at the interface tend have tightly packed coherent interfacial films and often provide better surfactant benefits than those with loosely packed noncoherent films. The effectiveness of adsorption of C8 /C10 oxypropyl D-gluconamide was determined using the Gibbs equation given as: […]
(∂γ/∂log[Conc])T

[2] = Viscosity of sodium lauryl sulfate compositions (Example 88); assay type: physicochemical; conditions: for Viscosity: 22° C.
Experimental: The prototype surfactant composition is as follows:
(§1) The above formulations were prepared by admixing the above ingredients in listed order and heating the mixture to about 80° C. with rapid stirring. The mixture was then cooled to about 40° C., placed in a clear jar and stored at room temperature for 6 months.
It is well known that the viscosity of a liquid composition comprising of anionic surfactant can be modified by the addition of inorganic salts, such as sodium chloride. However, in the absence of an organic modifier, high levels of salt may be necessary to achieve the required viscosity which may lead to problems of storage at cold temperature or even salting out certain ingredients. In practice, however, the viscosity of a liquid composition is modified by the simultaneous addition of thickener and small amounts of inorganic salt (viscosity cobuilder). The combined effect is greater than either one alone. The viscosity of the above prototype surfactant composition comprising various amounts of heteroatom containing alkyl aldonamide compound is as follows: […]

[3] = Krafft point; assay type: physicochemical; conditions: 0.1% in water
Experimental: The temperature at and above which surfactants begin to form micelles instead of precipitates is referred to as the Krafft point (Tk) and at this temperature the solubility of a surfactant becomes equal to its CMC (numerical value at which micelles are formed).
The Krafft point was measured by preparing 650 ml of a 0.1% or 1.0% dispersion of aldonamide in water by weight. If the surfactant was soluble at room temperature, the solution was slowly cooled to 0° C. […] (less than zero). If it precipitated out of solution, the temperature at which precipitation occurs was taken as the Krafft point.
If the surfactant was insoluble at room temperature, the dispersion was slowly heated until the solution became homogeneous. It was then slowly cooled until precipitation occurred. The temperature at which the surfactant precipitates out of solution upon cooling was taken as the Krafft point.

[4] = Surface tension at the water/air interface; assay type: physicochemical; conditions: 60 °C
Experimental: An important characteristic feature that surfactants have is the tendency for them to absorb at the water/air interface in an oriented manner, thereby altering the interfacial free energy of that surface. The surface free energy per unit area or surface tension (T), is a measure of this work and may be considered as the minimum amount of work required to bring sufficient surfactant molecules to the surface.
The surface tension (t) value of C8 /C10 oxypropyl D-gluconamide was determined and is set forth below: […]

[5] = test system: zein
Source text: The zein solubilization assay was developed to determine the biological effects of surfactants on the skin. The protein is normally in soluble in water, but can be brought into solution by interaction with surfactants. The extent of zein dissolved is related to the irritation potential (M. J. Schwinger, Kolloid-Z. Z. Poly., 233, 848, 1969). The greater the zein solubilization, the greater the irritation potential of that surfactant on the skin.
Thus, a 1% solution of surfactant (30 mls) was added to 1.5 g of zein and stirred at room temperature for 1 hour. Residual zein was collected and dried to constant weight. Differences between starting and residual weights were used to calculate % zein solubilized.

[6] = Viscosity enhancement of sodium/ammonium lauryl sulfate compositions (formulation Example 86); assay type: physicochemical; conditions: 4.0% thickener, 2395/22
[7] = Efficiency in surface tension reduction (pC20); assay type: physicochemical; conditions: 60 °C
Source text: Since surface tension reduction depends on the replacement of water molecules at the interface by surfactant molecules, the efficiency of a surfactant in reducing interfacial tension should reflect the concentration of surfactant at the interface relative to that in bulk liquid phase. […] This is defined as the negative logarithm of the bulk phase surfactant concentration necessary to reduce the surface tension of water by 20 dyn/cm and is given as:
C(-Δγ=20) =C20 is the bulk phase surfactant concentration necessary to reduce the surface tension of water by 20 dyn/cm.
In general, pC20 values are usually close to the minimum concentration needed to saturate the interface with surfactant molecules.

[8] = Clarity of prototype surfactant compositions (Example 87); assay type: physicochemical; conditions: room temperature, 6 months
Experimental: The prototype shampoo composition is as follows:
as §1

[9] = Packing parameter / micellar shape; assay type: physicochemical
Source text: A theory of miceliar structure, based upon the geometry of various micelie shapes and the space occupied by the surfactant has been disclosed by J. N. Israelachvili, D. J. Mitchell and B. W. Ninham in the J. Chem. Soc. Faraday Trans. 2, 1525, 72, (1976) which is given as the packing parameter (p).
VT=V(CH3) +(nc -1)V(CH2) and represents the volume occupied by the hydrophobic groups in the miceIlar core at a given temperature.
1c =1.50+1.26 nc Å and represents the length of the hydrophobic group in the core.
am =area per molecule or the cross-sectional area occupied by the hydrophilic group at the interface.

[10] = Effectiveness in reducing surface tension (surface pressure at CMC); assay type: physicochemical; conditions: 60 °C
Source text: As mentioned before, surface tension reduction depends on the replacement of water molecules at the interface by surfactant molecules, therefore the effectiveness of a surfactant in reducing interfacial surface tension should reflect the saturated concentration of surfactant at the interface relative to that in bulk liquid phase. During this process the surface tension of water steadily decreases as bulk phase surfactant concentration increases. This will continue until the concentration reaches the critical micelle concentration (CMC), above which the surface tension remains nearly unchanged and the interface is saturated with surfactant. The surface tension at the CMC is therefore very close to the minimum interfacial tension or maximum surface pressure that the system can achieve. The surface pressure at this point, IIcmc, is a suitable measure of the effectiveness of a surfactant in reducing surface tension and is given as:
IIcmc =20+2.3nRT(Γmax) log[CMC/C20 ]
n=1 which represents the number of ions whose surface concentration changes with the change in liquid phase surfactant concentration.
CMC/C20 =is the ratio of the critical micelie concentration to the bulk phase surfactant concentration necessary to reduce the surface tension of water by 20 dyn/cm.

[11] = Water solubility (statements); assay type: physicochemical
[12] = Critical micelle concentration, Wilhelmy plate method; assay type: physicochemical; conditions: 60 °C
Experimental: The critical micelie concentration (CMC) is defined as the concentration at which a surfactant forms micelles in aqueous solution. Micellization is the preferred interfacial phenomena, since certain surfactant benefits such as detergency (the solubilization of soils), foaming, wetting or emulsification depend on the formation of these aggregates in solution.
The CMC value of C8 /C10 oxypropyl D-gluconamide was determined by plotting surface tension as a function of log(concentration) and extrapolating linear points to obtain an intersection point. The concentration at this point was taken as the CMC. The technique used was the Wilhelmy plate method and the instrument used was a Lauda Auto-Tensiometer. While wishing not to be bound to theory, it is believed that surfactants with low CMC values form micelles more readily at lower concentrations than those with high CMC values.

[13] = cited from earlier work
[14] = cited from earlier work; remark: listed apart in the source
[15] = Foam stability and enhancement of sodium/ammonium lauryl sulfate, Ross-Miles (Example 86); assay type: physicochemical; conditions: 45° C., 4.0% foam stabilizer in sodium/ammonium lauryl sulfate composition
Experimental: The results were compared to identical compositions comprising petrochemically derived foam stabilizing agents, in particular, alkanolamides and alcohol ethoxylates. The prototype surfactant composition is as follows:
The compositions were prepared by admixing the ingredients in listed order with rapid stirring at 45--50° C. Foam stability and enhancement were measured at 0.1% based on sodium and ammonium lauryl sulfate (0.16% total solids) at 45° C. and 0 or 120 parts per million (ppm) hardness calcium:magnesium ion 2:1.

[16] = Foam stability and enhancement, Ross-Miles method (Example 85); assay type: physicochemical; conditions: triolein/calcium stearate 1 g/L, 10:90 mole % with C12 LAS, 35° C., read after 30 minutes
Experimental: The triolein/calcium stearate mixture was dispersed to the above solutions using a high speed shear mixer at 60° C. and then cooled to 35 ° C. The triolein/calcium stearate mixture represents an extreme type of antifoam behavior found in sebum soil.
In the Ross-Miles method, 200 mL of a surfactant solution contained in a pipette of specified dimensions with a 2.9-mm-i.d. orifice is allowed to fall 90 cm onto 50 mL of the same solution contained in a cylindrical vessel maintained at a given temperature by means of a water jacket. The height of the foam produced in the cylindrical vessel is read after 30 minutes has elapsed.
The foam stability and enhancement of the heteroatom containing alkyl aldonamides was further determined using a 10:90 mole percent solution of C8 /C10 oxypropyl D-gluconamide (C8 C10 OPG): sodium dodecyl benzene sulfonate (C12 LAS) and compared to identical solutions of dodecyl D-gluconamide (C12 Gluc): sodium dodecyl benzene sulfonate in the presence and absence of the triolein/calcium stearate antifoam.

[17] = estimated by extrapolating a linear line

C8 /C10 oxypropyl D-gluconamide
slope of a plot of γ versus log[Conc] ([1]; T=333.15 K): -24.57 ergs/cm^2 | Viscosity Increase ([2]; 1.0% thickener): 13 x | Viscosity ([2]; 1.0% thickener): 200 Centipoise | Viscosity Increase ([2]; 2.0% thickener): 27 x | Viscosity ([2]; 2.0% thickener): 400 Centipoise | Viscosity Increase ([2]; 3.0% thickener): 80 x | Viscosity ([2]; 3.0% thickener): 1200 Centipoise | Viscosity Increase ([2]; 4.0% thickener): 148 x | Viscosity ([2]; 4.0% thickener): 2220 Centipoise | Viscosity Increase ([2]; 5.0% thickener): 860 x | Viscosity ([2]; 5.0% thickener): 12900 Centipoise | Krafft Point (0.1%) [3]: 48 °C | Surface tension γ [4]: 29.2 dyn/cm | % Zein Solubilized [5]: 6% | increase of viscosity from its normal viscosity [6]: 109 times | pC20 [7]: 4.78 | Appearance ([8]; 3.0% in […] sodium lauryl sulfate): Clear | Appearance ([8]; 4.0% in […] sodium lauryl sulfate): Clear | Appearance ([8]; 5.0% in […] sodium lauryl sulfate): Clear | 1a (length of the hydrophobic group in the core) ([9]; T=333.15 K): 17.5 Å | micelles predicted from packing parameter ([9]; aqueous media): cylindrical to lameliar micelles | CMC/C20 [10]: 5.7 | Πcmc (surface pressure) [10]: 38.5 dyn/cm

CCCCCCCCCCCCNC(=O)[C@H](O)[C@@H](O)[C@H](O)[C@H](O)CO [C12 D-Gluconamide, dodecyl D-gluconamide]
Krafft Point (0.1%) [3]: 91 °C | water solubility (in words) [11]: insoluble in water | CMC (in words) [12]: None (Insoluble)

CCCCCCCCCCCCOCCOCCOCCOCCOCCOCCOCCO [Dodecylhepta(oxyethylene) Ether]
Πcmc (surface pressure) ([13]; 25 °C): 38.3 dyn/cm | Πcmc (surface pressure) ([13]; 40 °C): 38.5 dyn/cm | Γmax (surface excess concentration at surface saturation) [1]: 2.71 × 10^-10 mole/cm^2 | Γmax (surface excess concentration at surface saturation) ([14]; 25 °C): 2.90 × 10^-10 mole/cm^2 | Γmax (surface excess concentration at surface saturation) ([14]; 40 °C): 2.77 × 10^-10 mole/cm^2 | Πcmc (surface pressure) [10, 17]: 36.8 dyn/cm

CCCCCCCCCCCC(=O)N(CCO)CCO [Lauramide DEA, lauramide diethanolamine]
Initial FH ([15]; 0 ppm hardness): 190 mm

sodium dodecyl benzene sulfonate [C12 LAS]
Foam Height, With Antifoam [16]: 61 mm

cocoamide monoethanolamine [Cocoamide MEA]
Final FH after 60 Min. ([15]; 0 ppm hardness): 70 mm | Final FH after 60 Min. ([15]; 120 ppm hardness): 53 mm

CCCCCCCCCCCCOCCOCCOCCOCCOCCO [Dodecylpenta(oxyethylene) Ether]
CMC/C20 ([13]; 25 °C): 15.0 | Πcmc (surface pressure) ([13]; 25 °C): 41.5 dyn/cm | Πcmc (surface pressure) ([13]; 40 °C): 41.2 dyn/cm | Γmax (surface excess concentration at surface saturation) [1]: 3.16 × 10^-10 mole/cm^2 | Γmax (surface excess concentration at surface saturation) ([14]; 25 °C): 3.31 × 10^-10 mole/cm^2 | Γmax (surface excess concentration at surface saturation) ([14]; 40 °C): 3.28 × 10^-10 mole/cm^2 | Πcmc (surface pressure) [10, 17]: 40.7 dyn/cm

CCCCCCCCCCCCOCCOCCOCCOCCO [Dodecyltetra(oxyethylene) Ether]
Πcmc (surface pressure) ([13]; 25 °C): 43.4 dyn/cm | Πcmc (surface pressure) ([13]; 40 °C): 42.0 dyn/cm | Γmax (surface excess concentration at surface saturation) [1]: 3.01 × 10^-10 mole/cm^2 | Γmax (surface excess concentration at surface saturation) ([14]; 25 °C): 3.63 × 10^-10 mole/cm^2 | Γmax (surface excess concentration at surface saturation) ([14]; 40 °C): 3.41 × 10^-10 mole/cm^2 | Πcmc (surface pressure) [10, 17]: 40.7 dyn/cm
